Tests used:
[1] = test system: PSA mRNA; experiment: PSA mRNA expression by real time PCR in LnCAP cells; format: cell-based, human; conditions: 20 μM U0126 or 20 μM AG1478 30 minutes before 25 nM DHT 24 hours
Experimental: RNA was isolated with the RNeasy mini kit (Qiagen) according to manufacturer's instructions. Levels of Kallikrein-related peptidase-3 (KLK3, or prostate-specific antigen (“PSA”)), paxillin, cyclin D1, and GAPDH expression were analyzed by the A/A-Ct method using Taqman gene expression assay primers (assay ID# Hs99999905_ml-GAPDH, Hs02576345_ml-KLK3, Hs99999004_ml-CCND1, and Hs01104424-ml-PXN; Applied Biosystems) on an ABI StepOne plus real-time PCR machine.

[2] = test system: MEK; conditions: MLTC cells; 20 μM; cited from earlier work
[3] = test system: paxillin; experiment: Western blot of paxillin phosphorylation in LnCAP cells; format: cell-based, human; conditions: for DHT-induced paxillin phosphorylation at all four sites (tyrosines 31/118, serines 83/126): AG1478 or 20 μM PP2 before DHT
Experimental: (§1) LnCAP and PC3 cell lines were obtained from ATCC and cultured in RPMI 1640 medium (Invitrogen) containing 10% FBS and 1% penicillin-streptomycin. For experiments involving pharmacological inhibitors, cells were treated overnight with serum-free, phenol red-free RPMI 1640 media. Thereafter, cells were treated with vehicle (0.1% DMSO) or inhibitors Galardin, PP2, AG1478 (Calbiochem), flutamide, or erlotinib (Sigma) for 30 minutes before stimulation with 0.1% ethanol (vehicle) or 25 nM DHT for 30 minutes.
(§2) Western blots were performed as described (Evaul and Hammes, “Cross-Talk Between G Protein-Coupled and Epidermal Growth Factor Receptors Regulates Gonadotropin-Mediated Steroidogenesis in Leydig Cells,” J. Biol. Chem. 283(41):27525-27533 (2008), which is hereby incorporated by reference in its entirety). Primary antibodies were: paxillin, paxillinphospho-Tyr118, paxillin-phospho-Tyr31, Akt1/2/3, Akt1/2/3 phospho-Ser473, EGFR at 1:1000 dilution, and EGFR phospho-Tyr845 (1:500) (Santa Cruz Biotechnology); paxillin phospho-Ser126 (Invitrogen); paxillin phospho-Ser83 (ECM Biosciences); p44/42-Erk1/2, phospho-p44/42-Erk1/2 (Thr202/[…]), phospho-Ser217/221-MEK1/2, src, src-phospho-Tyr416 (Cell Signaling Technology) at 1:1000 dilutions and f3-actin (1:5000, Millipore).

[4] = test system: Erk1/2; experiment: Western blot of Erk1/2 phosphorylation in LnCAP cells; format: cell-based, human; conditions: for DHT-induced Erk1/2 phosphorylation: inhibitor 30 min (100 nM flutamide, 20 μM AG1478, 5 μM Erlotinib, 20 μM PP2, 20 μM galardin) before 25 nM DHT 30 min
Experimental: Thereafter, cells were treated with vehicle (0.1% DMSO) or inhibitors Galardin, PP2, AG1478 (Calbiochem), flutamide, or erlotinib (Sigma) for 30 minutes before stimulation with 0.1% ethanol (vehicle) or 25 nM DHT for 30 minutes.
PC3 or LnCAP cells were treated with non-targeting siRNA pool (ThermoFisher Scientific) or paxillin-specific siRNA according to manufacturer's instructions. Two sets of human paxillin siRNAs were used: 1) human paxillin siRNA (Santa Cruz Biotechnology) containing three target-specific 20-25 nucleotide siRNAs or 2) human paxillin siRNA ON-TARGET plus SMARTpoo1 (ThemoFisher Scientific) containing four siRNAs targeting the paxillin mRNA. […] For experiments involving constitutively active (“CA”) Raf (William Walker, University of Pittsburgh) or MEK (Melanie Cobb, University of Texas Southwestern Medical Center), cells were co-transfected with paxillin or nonspecific siRNAs and cDNAs encoding caRaf or caMEK.

[5] = test system: Src; experiment: Western blot of Src phosphorylation in LnCAP cells; format: cell-based, human; conditions: 20 μM, 30 min before 25 nM DHT
Experimental: as §1, §2

[6] = test system: EGFR; experiment: EGFR transactivation assay in A431 cells; format: cell-based
Experimental: A431 cells were used to detect DHT-mediated release of EGFR ligands from LnCAP cells. A431 cells (ATCC) were cultured in DMEM/F-12 (1:1) medium (Invitrogen) containing 10% FBS and 1% penicillin-streptomycin, serum-starved overnight, and then stimulated with medium from DHT−, DHT+Galardin−, or vehicle (0.1% ethanol)-treated LnCAP cells for 60 minutes. As controls, A431 cells were stimulated with DHT or media alone. Thereafter, A431 cells were isolated for Western blot analysis to detect phosphorylated and total EGFR.

[7] = test system: androgen receptors (AR); experiment: Androgen receptor nuclear localization by fluorescence imaging; format: cell-based
Experimental: Cellular staining was carried out using fluorescence imaging for androgen receptors (AR) and DAPI. […] Furthermore, knockdown and rescue experiments confirm that phosphoserine-paxillin is the moiety regulating AR translocation to the nucleus, since the mutant lacking the Erk serine targets (S A) cannot sustain AR nuclear localization (FIG. 17F versus 17E). Importantly, leptomycin B, which prevents nuclear export through CRM, rescues the nuclear localization of the AR in paxillin-knockdown cells stimulated with DHT (FIG. 17D). […] The latter allows the AR to remain in the nucleus, bind DNA, and promote transcription.

[8] = test system: LnCAP cells; experiment: MTT cell proliferation assay, LnCAP cells; format: cell-based, human
Experimental: (§3) PC3 or LnCAP cells were treated with non-targeting siRNA pool (ThermoFisher Scientific) or paxillin-specific siRNA according to manufacturer's instructions. Two sets of human paxillin siRNAs were used: 1) human paxillin siRNA (Santa Cruz Biotechnology) containing three target-specific 20-25 nucleotide siRNAs or 2) human paxillin siRNA ON-TARGET plus SMARTpoo1 (ThemoFisher Scientific) containing four siRNAs targeting the paxillin mRNA. The latter was used for all experiments described in the accompanying Examples, although results were similar with both pools. For experiments involving constitutively active (“CA”) Raf (William Walker, University of Pittsburgh) or MEK (Melanie Cobb, University of Texas Southwestern Medical Center), cells were co-transfected with paxillin or nonspecific siRNAs and cDNAs encoding caRaf or caMEK. After 72 hours, cells were treated overnight with serum-free, phenol red-free RPMI 1640 media and stimulated with 0.1% ethanol/DMSO (vehicle), 25 nM DHT (Steraloids), 20 ng/ml EGF (BD Biosciences), or 100 nM PMA (Sigma) for the times indicated for Western blots or 24 hours for MTT assays.
(§4) MTT assays were performed using a colorimetric assay cell proliferation kit (Roche Applied Science) according to the manufacturer's instructions.

[9] = test system: paxillin; experiment: Subcellular localization of paxillin and phosphoserine-paxillin; format: cell-based; conditions: upon stimulation with DHT or EGF
Source text: The subcellular localization of paxillin versus phosphoserine-paxillin was first examined. As expected, paxillin is localized primarily in the cytoplasm in resting cells (FIG. 14, unstimulated). […] This confirms the model of FIG. 9C, which posits that phosphoserine-paxillin regulates nuclear processes. Therefore, a common AR-mediated transcriptional event was examined: expression of PSA mRNA. […] Furthermore, knockdown of endogenous paxillin in LnCAP cells prevented DHT-induced induction of PSA mRNA expression and promoter activity (FIGS. 9A and 15). […] Together, these studies further emphasize that paxillin regulates cross-talk between extranuclear kinase signaling and intranuclear transcription.

[10] = test system: paxillin; experiment: Western blot of paxillin phosphorylation in PC3 cells; format: cell-based, human
Experimental: FIGS. 8A-D illustrate that PMA-mediated Erk1/2 activation is paxillin-independent, but PMA-mediated proliferation still requires serine phosphorylation of paxillin. In FIG. 8A, paxillin (Pax) or non-targeting (Nsp) siRNA-treated LnCAP cells were serum-starved and treated with PMA (100 nM) or EGF (20 ng/ml) for 30 minutes. Western blots were performed for paxillin and total and phosphorylated Erk1/2. In FIG. 8B, serum-starved PC3 cells were pretreated with 0.1% DMSO or 20 μM U0126 ([…]) for 30 minutes before stimulation with PMA (100 nM) or EGF (20 ng/ml) for another 30 minutes. Thereafter, levels of paxillin and phosphorylated paxillin at tyrosine-118 (Pax p-Y118) and serine-126 (Pax p-S126) were detected by Western blot. In FIG. 8C, cell proliferation (MTT assay) of PC3 cells treated (24 hours) with 0.1% DMSO (M) or 100 nM PMA in the presence or absence of 20 μM U0126. In FIG. 8D, PC3 cells were initially transfected with Paxillin (Pax) or non-targeting (Nsp) siRNA. After 96 hours, media were removed, and cells were then either mock-transfected or transfected with wild-type paxillin (left panel) or paxillin mutated at tyrosines 31/118 (Y31A/Y118A, middle panel) or serines 83/126/130 (S83A/S126A/S130A, right panel). […] Cell proliferation was detected by MTT. […]

[11] = test system: PC3 cells; experiment: MTT cell proliferation assay, PC3 cells; format: cell-based, human; conditions: 100 nM PMA 24 hours, 20 μM U0126
Experimental: as §3, §4

[12] = biological target: prostate-specific membrane antigen (PSMA) (Homo sapiens, UniProt Q04609); conditions: cited from earlier work
Chain of prostate-specific membrane antigen (PSMA) (Q04609 whole entry): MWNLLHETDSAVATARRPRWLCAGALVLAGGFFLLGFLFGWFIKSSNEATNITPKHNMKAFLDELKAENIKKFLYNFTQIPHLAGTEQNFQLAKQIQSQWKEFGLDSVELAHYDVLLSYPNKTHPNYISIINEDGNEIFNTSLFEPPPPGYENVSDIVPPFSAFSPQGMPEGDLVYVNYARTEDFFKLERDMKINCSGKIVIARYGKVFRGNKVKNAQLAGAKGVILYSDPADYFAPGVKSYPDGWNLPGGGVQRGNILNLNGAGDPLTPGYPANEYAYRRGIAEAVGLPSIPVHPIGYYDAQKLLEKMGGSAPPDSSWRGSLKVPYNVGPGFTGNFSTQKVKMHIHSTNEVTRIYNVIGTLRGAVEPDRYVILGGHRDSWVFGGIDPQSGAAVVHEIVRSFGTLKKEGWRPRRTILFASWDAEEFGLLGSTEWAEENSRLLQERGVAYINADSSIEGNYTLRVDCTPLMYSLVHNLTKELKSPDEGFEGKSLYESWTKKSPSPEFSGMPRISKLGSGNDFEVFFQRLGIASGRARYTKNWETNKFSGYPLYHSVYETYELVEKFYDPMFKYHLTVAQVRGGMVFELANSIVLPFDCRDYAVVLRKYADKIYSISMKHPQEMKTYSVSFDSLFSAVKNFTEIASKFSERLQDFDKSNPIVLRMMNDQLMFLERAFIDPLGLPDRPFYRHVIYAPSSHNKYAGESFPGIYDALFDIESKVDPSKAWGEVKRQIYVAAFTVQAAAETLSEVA

For COc1cc2ncnc(Nc3cccc(Cl)c3)c2cc1OC [AG1478], the “DHT-induced expression of PSA mRNA” value [1] is given as “abrogated”, the “EGF but not FGF-induced MEK activation” value [2] is given as “specifically blocks” and the “DHT-induced paxillin phosphorylation at all four sites (tyrosines 31/118, serines 83/126)” value [3] is given as “abrogated”. For the same molecule, the “EGF-induced Erk activation” value ([4]; 20 μM AG1478, EGF 20 ng/ml) was “specifically blocks”, the “FGF-induced Erk activation” value ([4]; 20 μM AG1478, FGF 25 ng/ml) was “does not block” and the “DHT-induced Erk1/2 phosphorylation” value [4] was “blocked”. For the same molecule, the “DHT-induced Src phosphorylation” value [5] was “blocked”.

For C[C@]12CCC(=O)C[C@@H]1CC[C@@H]1[C@@H]2CC[C@]2(C)[C@@H](O)CC[C@@H]12 [DHT], the “EGF receptor activation in A431 cells, direct stimulation” value ([6]; DHT alone (25 nM), no LnCAP cells) was “did not promote”, the “EGF receptor phosphorylation in A431 cells by medium from treated LnCAP cells” value ([6]; medium from 25 nM DHT-treated LnCAP cells, 60 minutes) was “increased” and the AR nuclear localization ([7]; DHT-treatment) was “promotes”. For the same molecule, the “LnCAP proliferation by both MTT and BrdU incorporation” value ([8]; 0.1-100 nM DHT) was “promoted”, the “cell proliferation (MTT)” value ([8]; LnCAP, DHT 25 nM or EGF 20 ng/ml, 24 hours) was “significantly stimulated” and the “phosphorylation of paxillin at tyrosines 31/118 and serines 83/126” value ([3]; 25 nM DHT, 30 minutes) was “triggered”. The “localization of total paxillin (T-Pax)” value [9] was “relocalizes the nucleus”, the “share of phosphoserine-paxillin (PS-PAX) in the nucleus” value [9] was “nearly all” and the “Erk1/2 activation from 15 to 120 minutes” value ([4]; 25 nM DHT or 20 ng/ml EGF) was “induced”. The Erk1/2 phosphorylation/activation ([4]; 25 nM DHT, 30 minutes) was “significantly induced”.

With C#Cc1cccc(Nc2ncnc3cc(OCCOC)c(OCCOC)cc23)c1 [Erlotinib] the “DHT-induced Erk1/2 phosphorylation” value [4] was “blocked”.

For CCCCCCCCCCCCCC(=O)O[C@@H]1[C@@H](C)[C@@]2(O)[C@@H](C=C(CO)C[C@]3(O)C(=O)C(C)=C[C@@H]23)[C@@H]2C(C)(C)[C@]12OC(C)=O [PMA], the “paxillin phosphorylation (tyrosine and serine)” value ([10]; PMA 100 nM or EGF 20 ng/ml, 30 minutes) was “only promoted serine phosphorylation”.

With CC(C)(C)n1nc(-c2ccc(Cl)cc2)c2c(N)ncnc21 [PP2] the “DHT-induced paxillin phosphorylation at all four sites (tyrosines 31/118, serines 83/126)” value [3] was “abrogated” and the “DHT-induced Erk1/2 phosphorylation” value [4] was “blocked”.

For N#CC(=C(/N)Sc1ccccc1N)/C(C#N)=C(\N)Sc1ccccc1N [U0126], the “DHT-induced expression of PSA mRNA” value [1] was “abrogated”, the “DHT-induced phosphorylation of paxillin at serines 83/126” value ([3]; 20 μM U0126) was “blocked” and the “PMA-induced proliferation of PC3 cells” value [11] was “blocked”. For the same molecule, the “PMA-induced serine phosphorylation of paxillin” value ([10]; 20 μM U0126) was “blocked”.

For CNC(=O)[C@H](Cc1c[nH]c2ccccc12)NC(=O)[C@@H](CC(=O)NO)CC(C)C [galardin], the “ability of medium from DHT-treated LnCAP cells to activate EGF receptor signaling in A431 cells” value ([6]; 20 μM galardin added to DHT (25 nM)-treated LnCAP cells) was “blocked” and the “DHT-induced Erk1/2 phosphorylation” value [4] was “block”.

With CCC(=C/[C@H](C)C/C=C/C(C)=C/[C@@H](C)C(=O)[C@@H](C)[C@H](O)[C@@H](C)C/C(C)=C/C(=O)O)/C=C/[C@@H]1OC(=O)C=C[C@@H]1C [leptomycin B] the “nuclear localization of the AR in paxillin-knockdown cells stimulated with DHT” value ([7]; leptomycin B prevents nuclear export through CRM) was “rescues”.

In the case of “Aptamer A10-3: RNA aptamer which binds specifically to PSMA (GGGAGGACGAUGCGGAUCAGCCAUGUUUACGUCACUCCUUGUCAAUCCUCAUCGGC; listed as RNA, chemistry not given here)”, the “binding to PSMA” value [12] is listed as “binds specifically”.

B1: Aptamer A10: RNA aptamer which binds specifically to PSMA (nucleic acid)
chain: GGGAGGACGAUGCGGAUCAGCCAUGUUUACGUCACUCCUUGUCAAUCCUCAUCGGCAGACGACUCGCCCGA
modifications: listed as RNA, chemistry not given here
In the case of B1, the “binding to PSMA” value [12] is listed as “binds specifically”.

B2: Aptamer A9: RNA aptamer which binds specifically to PSMA (nucleic acid)
chain: GGGAGGACGAUGCGGACCGAAAAAGACCUGACUUCUAUACUAAGUCUACGUUCCCAGACGACUCGCCCGA
modifications: listed as RNA, chemistry not given here
For B2, the “binding to PSMA” value [12] is given as “binds specifically”.

— patent US20130136753A1, “PAXILLIN AS A THERAPEUTIC OR DIAGNOSTIC MARKER FOR CANCER” (UNIVERSITY OF ROCHESTER, priority 2010, published 2013)
